One data set concerns the target AhR (Homo sapiens (Human), UniProt P35869). Briefly: AhR antagonism in U937 cells (Promega P450-Glo assay). The data set is classed as cell-based. To be noted: inhibition of agonist (KYNA) response, CYP1A1 activity readout (Luciferin-CEE), 24 hrs, arithmetic mean of pIC50. On the procedure:
Examples were tested in selected biological assays two or more times. Data are reported as the arithmetic mean of the pIC50 (−log10IC50) values, where IC50 is defined as the concentration of compound producing a 50% inhibition of the agonist (KYNA) response.
In Vitro Assay 1: AhR Antagonism in U937 Cells (Promega P450-Glo™ Assay)
AhR antagonism was assessed in U937 cells (myeloid lineage cell line derived from a human histiocytic lymphoma).). Ligand binds the AhR in the cytoplasm, and the AhR-ligand complex translocates to the nucleus and forms a heterodimer with AhR nuclear translocator (Arnt). This complex binds the xenobiotic response element (XRE) in the 5′ upstream region of the CYP1A1 promoter, enhancing CYP1A1 expression. CYP1A1 activity is subsequently determined by assessing the conversion of Luciferin-CEE to luciferin, which in turn reacts with luciferase to produce light. The amount of light produced is directly proportional to cytochrome P450 activity. U937 cells in Ultraculture serum free media (Lonza) were plated at 100,000 cells per well in a round bottom 96 well tissue culture plate. Seven concentrations of test compound (final [DMSO] 1%) were added and incubated for 10 minutes before the addition of […] KYNA. The plates were then placed in an incubator at 37° C., >85% humidity, 5% CO2 for 24 hrs. After aspiration of the supernatant the CYP1A1 substrate Luciferin-CEE ([Final] 83 μM) was added and incubated for 3 hrs before the reaction was stopped by adding luciferin detection reagent and luminescence was read after 20 minutes.

The next data set deals with CYP1A1 (Homo sapiens (Human), UniProt P04798). Briefly: CYP1A1 inhibition assay (Promega P450-Glo, Cypex bactosomes). To be noted: direct CYP1A1 inhibition, Luciferin-CEE 30 μM, NADPH, 37° C., arithmetic mean of pIC50. The data set is classed as biochemical. On the procedure: In Vitro Assay 22: […] Inhibition Assay
Chain of CYP1A1 (P04798 whole entry): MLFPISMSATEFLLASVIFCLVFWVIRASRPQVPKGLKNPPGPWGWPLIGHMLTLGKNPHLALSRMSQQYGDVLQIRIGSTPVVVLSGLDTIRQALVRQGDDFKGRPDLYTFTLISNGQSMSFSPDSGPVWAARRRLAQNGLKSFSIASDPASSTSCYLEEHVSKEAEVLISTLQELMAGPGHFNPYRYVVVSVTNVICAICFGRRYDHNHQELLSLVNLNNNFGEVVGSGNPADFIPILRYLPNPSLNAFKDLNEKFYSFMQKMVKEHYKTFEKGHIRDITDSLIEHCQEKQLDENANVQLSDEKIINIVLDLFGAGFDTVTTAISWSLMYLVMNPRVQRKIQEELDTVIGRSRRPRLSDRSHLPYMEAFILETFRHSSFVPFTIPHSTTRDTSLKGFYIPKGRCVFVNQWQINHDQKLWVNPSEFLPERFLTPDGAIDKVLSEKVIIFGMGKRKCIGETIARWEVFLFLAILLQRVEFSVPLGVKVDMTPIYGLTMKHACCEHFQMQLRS
The direct CYP1A1 inhibitory activity of test compounds was also assessed using the Promega P450-Glo™ assay system. Seven concentrations of test compound were added to a ½ area white 96 well plate. Cypex […]. bactosomes ([final] 0.5 pmol) and CYPA substrate Luciferin-CEE ([final] 30 μM) were prepared in 0.1M potassium phosphate buffer and incubated with test compounds at 37° C. for 5 minutes. 0.2m NADPH was then added to the plates and incubated at 37° C., for 10 minutes. The reaction was stopped by adding luciferin detection reagent and luminescence was read after 20 minutes.

These results are taken from patent US12221439B2, “Tetrahydropyridopyrimidine derivatives as AhR modulators” (JAGUAHR THERAPEUTICS PTE LTD, priority 2018, dated 2025).

Chain of AhR (P35869 11-848): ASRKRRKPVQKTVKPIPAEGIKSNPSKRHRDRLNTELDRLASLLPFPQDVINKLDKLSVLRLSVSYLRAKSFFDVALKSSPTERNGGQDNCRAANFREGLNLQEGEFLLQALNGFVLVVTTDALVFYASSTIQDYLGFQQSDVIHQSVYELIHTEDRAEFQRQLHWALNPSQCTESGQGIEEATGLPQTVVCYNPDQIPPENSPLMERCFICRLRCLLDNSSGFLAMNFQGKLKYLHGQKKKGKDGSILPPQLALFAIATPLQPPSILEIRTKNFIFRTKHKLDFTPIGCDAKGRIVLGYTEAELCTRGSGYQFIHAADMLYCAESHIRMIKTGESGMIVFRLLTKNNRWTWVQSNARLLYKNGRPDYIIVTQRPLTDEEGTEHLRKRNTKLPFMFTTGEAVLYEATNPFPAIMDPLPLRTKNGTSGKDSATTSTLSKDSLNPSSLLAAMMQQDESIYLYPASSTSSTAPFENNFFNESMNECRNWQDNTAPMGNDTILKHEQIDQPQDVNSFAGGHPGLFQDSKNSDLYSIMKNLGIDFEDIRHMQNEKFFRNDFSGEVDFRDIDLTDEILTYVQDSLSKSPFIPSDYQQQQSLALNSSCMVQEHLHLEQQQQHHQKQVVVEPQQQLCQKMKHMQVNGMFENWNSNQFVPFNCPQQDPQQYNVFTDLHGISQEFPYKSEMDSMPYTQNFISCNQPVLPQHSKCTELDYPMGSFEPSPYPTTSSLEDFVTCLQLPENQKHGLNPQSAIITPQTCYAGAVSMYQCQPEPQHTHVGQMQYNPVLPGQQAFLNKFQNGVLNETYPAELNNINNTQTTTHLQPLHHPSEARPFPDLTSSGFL

The IC50 is the concentration that gives 50% inhibition. `Fc1cncc(-c2nc3c(c(NCCc4c[nH]c5ccccc45)n2)CNC3)c1` [Example 24, N-(2-(1H-indol-3-yl)ethyl)-2-(5-fluoropyridin-3-yl)-6,7-dihydro-5H-pyrrolo[3,4-d]pyrimidin-4-amine]: at AhR, the IC50 was 12.6 nM. Also, the “cyp1A1 pIC50” value on CYP1A1 was found to be 6.60.

`CS(=O)(=O)N1Cc2nc(-c3cncc(F)c3)nc(NCCc3c[nH]c4ccccc34)c2C1` [Example 25, N-(2-(1H-indol-3-yl)ethyl)-2-(5-fluoropyridin-3-yl)-6-(methylsulfonyl)-6,7-dihydro-5H-pyrrolo[3,4-d]pyrimidin-4-amine] showed an IC50 on AhR of 5.01 nM. Also, the “cyp1A1 pIC50” value at CYP1A1 stood at 6.20.

`Cc1cncc(-c2nc3c(c(NCCc4c[nH]c5ccccc45)n2)CNCC3)c1` [Example 26, N-(2-(1H-indol-3-yl)ethyl)-2-(5-methylpyridin-3-yl)-5,6,7,8-tetrahydro pyrido[4,3-d]pyrimidin-4-amine] had an IC50 on AhR of 6.17 nM. Further, the “cyp1A1 pIC50” value on CYP1A1 is listed as 7.2.

As to `Clc1cncc(-c2nc3c(c(NCCc4c[nH]c5ccccc45)n2)CNCC3)c1` [Example 27, N-(2-(1H-indol-3-yl)ethyl)-2-(5-chloropyridin-3-yl)-5,6,7,8-tetrahydropyrido[4,3-d]pyrimidin-4-amine], at AhR, the IC50 is 4.47 nM. In addition, the “cyp1A1 pIC50” value at CYP1A1 amounted to 7.2.

Take `Fc1cncc(-c2nc3c(c(NCCc4nc5ccccc5[nH]4)n2)CNCC3)c1` [Example 28, N-(2-(1H-benzo[d]imidazol-2-yl)ethyl)-2-(5-fluoropyridin-3-yl)-5,6,7,8-tetrahydropyrido[4,3-d]pyrimidin-4-amine]: on AhR, the IC50 was above 10000 nM. The “cyp1A1 pIC50” value on CYP1A1 is reported as 5.5.

Take `Fc1cncc(-c2nc3c(c(NCCc4c[nH]c5cc(F)ccc45)n2)CCNC3)c1` [Example 29, N-(2-(6-fluoro-1H-indol-3-yl)ethyl)-2-(5-fluoropyridin-3-yl)-5,6,7,8-tetrahydropyrido[3,4-d]pyrimidin-4-amine]: on AhR, the IC50 is 7.94 nM. The “cyp1A1 pIC50” value at CYP1A1 is 6.7.

Molecule `Fc1cncc(-c2nc3c(c(NCCc4c[nH]c5ccc(F)cc45)n2)CCNC3)c1` [Example 30, N-(2-(5-fluoro-1H-indol-3-yl)ethyl)-2-(5-fluoropyridin-3-yl)-5,6,7,8-tetrahydropyrido [3,4-d]pyrimidin-4-amine] had an IC50 at AhR of 26.3 nM. For the same molecule, the “cyp1A1 pIC50” value on CYP1A1 is given as 6.5.

In the case of `Fc1cncc(-c2nc3c(c(NCCc4c[nH]c5cc(F)ccc45)n2)CNCC3)c1` [Example 31, N-(2-(6-fluoro-1H-indol-3-yl)ethyl)-2-(5-fluoropyridin-3-yl)-5,6,7,8-tetrahydropyrido[4,3-d]pyrimidin-4-amine], the IC50 on AhR was 5.13 nM. Also, the “cyp1A1 pIC50” value on CYP1A1 is reported as 7.2.

On AhR, `Fc1cncc(-c2nc3c(c(NCCc4c[nH]c5ccc(F)cc45)n2)CNCC3)c1` [Example 32, N-(2-(5-fluoro-1H-indol-3-yl)ethyl)-2-(5-fluoropyridin-3-yl)-5,6,7,8-tetrahydropyrido[4,3-d]pyrimidin-4-amine] had an IC50 of 6.03 nM. Moreover, the “cyp1A1 pIC50” value at CYP1A1 was found to be 7.1.
